How the values were obtained:
[1] = target: T1, human HIPK2 (Homo sapiens, UniProt Q9H2X6); assay: HIPK2 enzyme assay (ADP-Glo); format: biochemical; details: ADP-Glo, ATP 5 μM; read-out: HIPK2 IC50
T1 construct: Recombinant human HIPK2 (1-640); GST (N); purchased SignalChem H04-11BG; host or cells: Sf9 insect cells
In short: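 GST-tagged HIPK2 (1-640) from Sf9, 1 nM, preincubated 30 min at 25° C with inhibitor in 40 mM Tris pH 7.5, 20 mM MgCl2. Reaction ran 90 min at 25° C with GST-MBP substrate at 0.05 mg/ml and 5 μM ATP. ADP-Glo luminescence; IC50 by four-parameter logistic fit.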

[2] = target: T2, human CLK1 (Homo sapiens, UniProt P49759); assay: CLK1 enzyme assay (ADP-Glo); format: biochemical; details: ADP-Glo, ATP 10 μM; read-out: CLK1 IC50
T2 construct: Recombinant human CLK1 (129-end); GST (N); purchased SignalChem C57-11G; host or cells: Sf9 insect cells
In short: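 GST-tagged CLK1 (129-end, Sf9-expressed) at 16 nM was preincubated with compound 30 min at 25 °C in 40 mM Tris pH 7.5, 20 mM MgCl2, 0.1 mg/ml BSA, 50 μM DTT. Reaction with 2 μM substrate and 10 μM ATP ran 60 min at 25 °C. ADP-Glo luminescence gave IC50 by four-parameter fit.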

T1 sequence (Q9H2X6 1-640): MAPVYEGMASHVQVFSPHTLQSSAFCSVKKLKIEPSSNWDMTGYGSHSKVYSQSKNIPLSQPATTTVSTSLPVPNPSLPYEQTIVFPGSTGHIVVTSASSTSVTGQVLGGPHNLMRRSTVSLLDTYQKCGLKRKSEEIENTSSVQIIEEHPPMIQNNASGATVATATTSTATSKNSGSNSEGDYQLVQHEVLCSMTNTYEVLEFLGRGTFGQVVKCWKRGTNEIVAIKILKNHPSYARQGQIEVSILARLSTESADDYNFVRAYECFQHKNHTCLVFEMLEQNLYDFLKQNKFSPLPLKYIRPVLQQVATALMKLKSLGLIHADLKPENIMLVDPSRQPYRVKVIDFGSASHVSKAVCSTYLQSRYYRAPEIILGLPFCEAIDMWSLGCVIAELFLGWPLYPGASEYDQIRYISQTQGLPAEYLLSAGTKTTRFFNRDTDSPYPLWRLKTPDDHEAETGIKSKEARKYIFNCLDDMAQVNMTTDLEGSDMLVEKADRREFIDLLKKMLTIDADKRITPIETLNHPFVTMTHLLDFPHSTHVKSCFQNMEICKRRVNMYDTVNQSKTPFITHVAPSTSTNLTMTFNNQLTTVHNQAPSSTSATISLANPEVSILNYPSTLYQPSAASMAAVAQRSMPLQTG
T2 sequence (P49759 129-484 limits assumed): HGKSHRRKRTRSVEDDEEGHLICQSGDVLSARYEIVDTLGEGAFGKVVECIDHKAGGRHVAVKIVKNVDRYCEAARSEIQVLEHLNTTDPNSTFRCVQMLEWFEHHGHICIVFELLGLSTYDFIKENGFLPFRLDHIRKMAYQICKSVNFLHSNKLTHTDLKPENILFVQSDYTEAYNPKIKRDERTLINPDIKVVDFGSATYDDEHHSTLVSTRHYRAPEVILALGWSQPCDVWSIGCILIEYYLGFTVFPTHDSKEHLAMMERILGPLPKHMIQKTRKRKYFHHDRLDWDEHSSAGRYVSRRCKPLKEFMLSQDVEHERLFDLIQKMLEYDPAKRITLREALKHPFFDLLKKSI

IC50 [1] | IC50 [2] | Compound
100 to 1000 nM | 100 to 1000 nM | O=C1NC(Nc2ccc3ncsc3c2)=NC1Cc1ccc2ncsc2c1 (centres unmarked) [Example 102, 2-(benzo[d]thiazol-6-ylamino)-5-(benzo[d]thiazol-6-ylmethyl)-3,5-dihydro-4H-imidazol-4-one]
100 to 1000 nM | < 100 nM | NC1=N/C(=C\c2ccc3ncsc3c2)C(=O)N1 [Example 103, (Z)-2-amino-5-(benzo[d]thiazol-6-ylmethylene)-3,5-dihydro-4H-imidazol-4-one]
1000 to 10000 nM | < 100 nM | O=C1NC(Nc2ccc3nc(Nc4ccccc4)sc3c2)=N/C1=C\c1ccc2ncsc2c1 [Example 104, (Z)-5-(benzo[d]thiazol-6-ylmethylene)-2-((2-(phenylamino)benzo[d]thiazol-6-yl)amino)-3,5-dihydro-4H-imidazol-4-one]
> 10000 nM | > 10000 nM | O=C1NC(N(CC2CC2)c2ccc3ncsc3c2)=N/C1=C\c1ccc2ncsc2c1 [Example 105, (Z)-2-(benzo[d]thiazol-6-yl(cyclopropylmethyl)amino)-5-(benzo[d]thiazol-6-ylmethylene)-3,5-dihydro-4H-imidazol-4-one]

Source: US12643887B2, “Heterocyclic derivatives with cardiomyocyte proliferation activity for treatment of heart diseases” (Tongji University, priority 2019, dated 2026)
